Data set [1] can be described thus: Lipophilicity, log D at pH 7.4. In kind it is physicochemical. As to conditions: buffer.
Data set [2] relates to Brain. Nature of the data set: Drug uptake in olive baboon brain at 7.89 mCi after 10 mins. In kind it is ADME, tissue-based. As to conditions: papio anubis, in vivo.
The target in data set [3] is Sodium-dependent serotonin transporter (Rattus norvegicus, UniProt P31652). Nature of the data set: Displacement of [3H]paroxetine from SERT in brain membranes. In kind it is cell membranes, Membrane.
Sequence of Sodium-dependent serotonin transporter (P31652 whole entry): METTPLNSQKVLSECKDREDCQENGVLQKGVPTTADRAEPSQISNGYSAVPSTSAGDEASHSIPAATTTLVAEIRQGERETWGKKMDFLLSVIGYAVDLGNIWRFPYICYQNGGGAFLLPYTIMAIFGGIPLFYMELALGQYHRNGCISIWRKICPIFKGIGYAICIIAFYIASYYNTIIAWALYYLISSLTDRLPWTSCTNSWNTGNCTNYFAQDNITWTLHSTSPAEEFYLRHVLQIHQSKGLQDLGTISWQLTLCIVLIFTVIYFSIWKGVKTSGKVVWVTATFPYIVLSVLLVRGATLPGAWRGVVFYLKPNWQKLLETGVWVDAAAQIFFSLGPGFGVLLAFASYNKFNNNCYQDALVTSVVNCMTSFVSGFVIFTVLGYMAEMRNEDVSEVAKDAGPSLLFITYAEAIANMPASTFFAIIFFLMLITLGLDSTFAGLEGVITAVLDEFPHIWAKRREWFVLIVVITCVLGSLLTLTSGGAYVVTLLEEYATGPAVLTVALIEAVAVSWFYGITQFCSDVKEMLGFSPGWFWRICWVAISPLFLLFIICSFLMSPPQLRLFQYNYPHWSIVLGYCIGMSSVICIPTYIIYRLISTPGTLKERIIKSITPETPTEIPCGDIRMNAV
Data set [4] concerns the target Sodium-dependent dopamine transporter (Rattus norvegicus, UniProt P23977). Put plainly: Displacement of [3H]GBR from DAT in rat brain membranes. The format is cell membranes.
Data set [5] concerns the target Norepinephrine transporter (Rattus norvegicus, UniProt Q9WTR4). Put plainly: Displacement of [3H]nisoxetine from NET in rat brain membranes. The format is cell membranes.
For data set [6], the target named is Sodium-dependent serotonin transporter (Rattus norvegicus) (UniProt P31652). Nature of the data set: Inhibition of SERT in rat brain membrane at 10 uM. The format is cell membranes.
Sequence of Sodium-dependent serotonin transporter (Rattus norvegicus) (P31652 whole entry): as above

Sequence of Sodium-dependent dopamine transporter (P23977 whole entry): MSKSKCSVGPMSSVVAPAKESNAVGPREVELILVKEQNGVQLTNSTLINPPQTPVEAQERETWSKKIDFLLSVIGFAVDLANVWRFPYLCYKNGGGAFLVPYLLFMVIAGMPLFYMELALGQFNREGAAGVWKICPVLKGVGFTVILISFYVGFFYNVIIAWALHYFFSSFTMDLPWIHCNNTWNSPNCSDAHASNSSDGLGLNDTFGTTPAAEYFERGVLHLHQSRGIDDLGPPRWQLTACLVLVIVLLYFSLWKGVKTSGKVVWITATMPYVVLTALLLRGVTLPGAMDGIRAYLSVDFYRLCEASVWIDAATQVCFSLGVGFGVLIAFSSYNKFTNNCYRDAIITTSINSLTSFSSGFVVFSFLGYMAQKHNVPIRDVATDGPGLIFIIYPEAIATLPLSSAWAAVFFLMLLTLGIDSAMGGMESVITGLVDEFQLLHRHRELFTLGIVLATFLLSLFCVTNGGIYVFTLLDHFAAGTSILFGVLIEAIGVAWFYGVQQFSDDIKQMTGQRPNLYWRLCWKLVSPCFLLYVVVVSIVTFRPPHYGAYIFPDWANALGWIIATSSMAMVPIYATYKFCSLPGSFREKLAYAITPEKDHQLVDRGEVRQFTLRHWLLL
Sequence of Norepinephrine transporter (Q9WTR4 whole entry): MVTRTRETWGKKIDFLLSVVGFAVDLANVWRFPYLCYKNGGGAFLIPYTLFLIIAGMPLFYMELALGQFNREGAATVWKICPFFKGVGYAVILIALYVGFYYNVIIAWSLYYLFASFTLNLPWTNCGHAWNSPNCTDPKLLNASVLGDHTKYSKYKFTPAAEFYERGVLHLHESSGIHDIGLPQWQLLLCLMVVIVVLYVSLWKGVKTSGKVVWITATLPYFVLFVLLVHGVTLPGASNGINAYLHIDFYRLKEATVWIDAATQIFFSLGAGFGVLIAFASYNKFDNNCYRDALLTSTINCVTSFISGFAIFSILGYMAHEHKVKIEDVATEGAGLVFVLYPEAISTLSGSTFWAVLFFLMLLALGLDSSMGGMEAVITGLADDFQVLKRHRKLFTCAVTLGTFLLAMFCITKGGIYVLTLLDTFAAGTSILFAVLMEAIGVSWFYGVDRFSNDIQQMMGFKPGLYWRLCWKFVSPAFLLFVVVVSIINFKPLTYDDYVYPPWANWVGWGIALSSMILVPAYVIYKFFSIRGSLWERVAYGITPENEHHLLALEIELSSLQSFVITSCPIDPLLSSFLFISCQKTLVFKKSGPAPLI

Compound `[125I]c1ccccc1O[C@@H](c1ccccc1)[C@@H]1CNCCO1` returned a logD in data set [1] of 2.6. The compound also displayed a Drug uptake in data set [2] of 1 %ID.
For `O=[N+]([O-])c1ccccc1COC(c1cccc(I)c1)C1CNCCO1` (racemic), the Ki in data set [3] turned out to be 252 nM; in data set [4] it was 14.2 nM; in data set [5], 70.4 nM.
Consider `Ic1ccccc1O[C@@H](c1ccccc1)[C@@H]1CNCCO1`, for which the Ki in data set [3] was found to be 40.4 nM; in data set [4], 228 nM; in data set [5], 0.84 nM.
Consider `CCOc1ccccc1OC(c1cccc(I)c1)C1CNCCO1` (racemic), for which the results for the Ki in data set [4] and in data set [5] were 3140 nM and 28.5 nM, respectively. This compound also displayed an inhibition in data set [6] of 44%.
For the compound `COc1ccccc1OC(c1cccc(I)c1)C1CNCCO1` (racemic), the Ki is > 10000 nM in data set [4] and 15.4 nM in data set [5]. Moreover, the inhibition in data set [6] was determined as 12%.
As for `FC(F)(F)c1ccccc1OC(c1cccc(I)c1)C1CNCCO1` (racemic), the inhibitory constant (Ki) in data set [3] was found to be 486 nM; in data set [4], 1870 nM; in data set [5] it was 101 nM.
Regarding `Cc1ccccc1OC(c1cccc(I)c1)C1CNCCO1` (racemic), the Ki in data set [4] is 740 nM; in data set [5], 27.6 nM. In addition, the inhibition in data set [6] was found to be 24%.
As to `Cc1ccccc1OC(c1ccc(I)s1)C1CNCCO1` (racemic), the results for the inhibition constant Ki in data set [4] and in data set [5] were 186 nM and 71.9 nM, respectively. The compound also returned an inhibition in data set [6] of 31%.
Take `Ic1ccccc1OC(c1ccccc1)C1CNCCO1` (racemic): the Ki turned out to be 410 nM in data set [4] and 2.47 nM in data set [5]. In data set [6], this compound showed an inhibition of 40%.
As for `COc1ccccc1OC(c1ccc(I)s1)C1CNCCO1` (racemic), the values for the Ki in data set [3], in data set [4] and in data set [5] were 141 nM, 210 nM and 79.6 nM, respectively.
As to `COc1ccccc1COC(c1cccc(I)c1)C1CNCCO1` (racemic), the Ki in data set [3] stood at 351 nM; in data set [4], 716 nM; in data set [5] it was 73.8 nM.

The record behind these values is ChEMBL document CHEMBL1138413, “Development of SPECT imaging agents for the norepinephrine transporters: [123I]INER” (Bioorg Med Chem Lett, 2007).
